Assays:
[1] = target: Beta-2 adrenergic receptor (Homo sapiens, UniProt P07550); test: DRUGMATRIX: Adrenergic beta2 radioligand binding (ligand: [3H] CGP-12177); assay type: cell membranes, CHO, Membrane; details: cho; Not Active = under 50% inhibition at 10 µM
[2] = target: Platelet-activating factor receptor (Homo sapiens, UniProt P25105); test: biochemical; assay type: tissue-based; details: platelet; also: in other assays of this panel Not Active means under 50% inhibition at 10 µM
Cannabinoid receptor 1 = Cannabinoid receptor 1 (Homo sapiens, UniProt P21554); assay type: cell membranes, Membrane; details: chem-1; also: in other assays of this panel Not Active means under 50% inhibition at 10 µM
[3] = target: Beta-3 adrenergic receptor (Homo sapiens, UniProt P13945); test: DRUGMATRIX: Adrenergic beta3 radioligand binding (ligand: [125I] Cyanopindolol); assay type: cell membranes, HEK293, Membrane; details: hek293; Not Active = under 50% inhibition at 10 µM
Neutrophil elastase = target: T1, Neutrophil elastase (Homo sapiens, UniProt P08246); assay type: tissue-based;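 also: inhibition of neutrophil elastase enzyme activity, measured with a p-nitroanilide-linked peptide substrate; in other assays of this panel Not Active means under 50% inhibition at 10 µM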
T1 sequence (P08246 whole entry): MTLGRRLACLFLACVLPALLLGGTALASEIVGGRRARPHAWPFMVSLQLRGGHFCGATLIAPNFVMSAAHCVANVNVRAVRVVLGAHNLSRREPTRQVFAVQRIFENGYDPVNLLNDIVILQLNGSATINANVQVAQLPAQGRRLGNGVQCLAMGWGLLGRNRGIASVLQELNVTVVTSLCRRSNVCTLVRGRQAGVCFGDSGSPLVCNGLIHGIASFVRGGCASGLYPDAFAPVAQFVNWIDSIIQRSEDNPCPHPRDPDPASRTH

[4] = DRUGMATRIX: Phorbol Ester radioligand binding (ligand: [3H] PDBu); assay type: cell membranes, Mus musculus, ICR, Brain, Membrane; details: Not Active = under 50% inhibition at 10 µM
[5] = DRUGMATRIX: ATPase, Na+/K+ enzyme inhibition (substrate: ATP); assay type: tissue-based, Sus scrofa, Heart; details: Not Active = under 50% inhibition at 10 µM

Beta-2 adrenergic receptor, sequence (P07550 whole entry): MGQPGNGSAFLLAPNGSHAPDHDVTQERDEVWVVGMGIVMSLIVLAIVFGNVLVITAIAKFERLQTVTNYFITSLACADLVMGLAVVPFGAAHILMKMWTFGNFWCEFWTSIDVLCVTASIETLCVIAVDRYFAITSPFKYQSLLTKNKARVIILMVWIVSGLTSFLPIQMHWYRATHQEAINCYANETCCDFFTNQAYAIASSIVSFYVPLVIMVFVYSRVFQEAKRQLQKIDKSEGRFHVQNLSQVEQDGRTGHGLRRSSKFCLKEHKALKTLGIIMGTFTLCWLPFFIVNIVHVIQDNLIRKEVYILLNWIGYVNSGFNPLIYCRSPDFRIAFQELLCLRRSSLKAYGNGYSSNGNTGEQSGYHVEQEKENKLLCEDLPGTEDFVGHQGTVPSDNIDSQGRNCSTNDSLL
Platelet-activating factor receptor, sequence (P25105 whole entry): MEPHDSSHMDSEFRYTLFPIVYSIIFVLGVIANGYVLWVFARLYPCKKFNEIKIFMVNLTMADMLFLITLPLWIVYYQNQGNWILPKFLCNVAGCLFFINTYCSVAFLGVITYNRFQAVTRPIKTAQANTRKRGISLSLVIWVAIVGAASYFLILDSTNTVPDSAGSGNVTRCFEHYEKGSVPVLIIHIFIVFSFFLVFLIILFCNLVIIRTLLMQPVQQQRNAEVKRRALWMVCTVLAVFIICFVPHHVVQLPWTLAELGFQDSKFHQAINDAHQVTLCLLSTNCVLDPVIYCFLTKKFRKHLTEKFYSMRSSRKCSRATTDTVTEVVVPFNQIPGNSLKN
Cannabinoid receptor 1, sequence (P21554 whole entry): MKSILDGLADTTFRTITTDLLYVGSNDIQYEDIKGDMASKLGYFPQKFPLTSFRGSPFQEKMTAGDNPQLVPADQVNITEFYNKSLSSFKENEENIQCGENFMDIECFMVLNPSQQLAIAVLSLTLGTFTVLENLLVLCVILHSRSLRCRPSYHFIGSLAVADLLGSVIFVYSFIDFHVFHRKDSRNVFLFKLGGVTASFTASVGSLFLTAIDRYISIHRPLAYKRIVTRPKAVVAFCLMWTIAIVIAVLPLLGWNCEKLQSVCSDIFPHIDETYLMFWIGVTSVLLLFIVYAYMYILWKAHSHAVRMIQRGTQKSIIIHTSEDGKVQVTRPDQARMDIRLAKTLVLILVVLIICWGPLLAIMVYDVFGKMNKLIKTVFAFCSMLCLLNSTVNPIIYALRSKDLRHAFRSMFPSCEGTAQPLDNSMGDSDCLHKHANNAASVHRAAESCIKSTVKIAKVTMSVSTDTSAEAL
Beta-3 adrenergic receptor, sequence (P13945 whole entry): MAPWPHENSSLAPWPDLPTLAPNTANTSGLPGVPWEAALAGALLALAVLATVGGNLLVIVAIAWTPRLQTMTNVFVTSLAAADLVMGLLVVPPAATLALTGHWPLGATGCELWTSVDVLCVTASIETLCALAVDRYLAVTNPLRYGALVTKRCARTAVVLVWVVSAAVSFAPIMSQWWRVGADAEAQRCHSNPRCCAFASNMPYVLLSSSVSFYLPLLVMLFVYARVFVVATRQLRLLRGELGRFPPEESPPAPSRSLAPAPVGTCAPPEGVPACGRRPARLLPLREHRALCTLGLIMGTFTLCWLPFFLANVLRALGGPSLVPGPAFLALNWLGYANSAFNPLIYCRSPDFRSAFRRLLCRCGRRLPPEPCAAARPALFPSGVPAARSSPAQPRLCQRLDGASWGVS

CC(=O)OCC(CCn1cnc2cnc(N)nc21)COC(C)=O [FAMCICLOVIR]
Not Active: IC50 [1] | IC50 [2] | IC50 (Cannabinoid receptor 1) | IC50 [3] | IC50 (Neutrophil elastase) | IC50 [4] | Ki [4] | IC50 [5] | Ki [5]

O=C(O)Cc1ccc(-c2ccccc2)cc1 [FELBINAC]
Not Active: IC50 [1] | IC50 [2] | IC50 (Cannabinoid receptor 1) | IC50 [3] | IC50 (Neutrophil elastase) | IC50 [4] | Ki [4] | IC50 [5] | Ki [5]

CCOC(=O)C1=C(C)NC(C)=C(C(=O)OC)C1c1cccc(Cl)c1Cl (centres undefined) [FELODIPINE]
Not Active: IC50 [1] | IC50 [2] | IC50 (Cannabinoid receptor 1) | IC50 [3] | IC50 (Neutrophil elastase) | IC50 [4] | Ki [4] | IC50 [5] | Ki [5]

CC(C(=O)O)c1ccc(-c2ccccc2)c(F)c1 (centres undefined) [FLURBIPROFEN]
Not Active: IC50 [1] | IC50 [2] | IC50 (Cannabinoid receptor 1) | IC50 [3] | IC50 (Neutrophil elastase) | IC50 [4] | Ki [4] | IC50 [5] | Ki [5]

Cc1cn[nH]c1 [FOMEPIZOLE]
Not Active: IC50 [1] | IC50 [2] | IC50 (Cannabinoid receptor 1) | IC50 [3] | IC50 (Neutrophil elastase) | IC50 [4] | Ki [4] | IC50 [5] | Ki [5]

NC[C@@H]1O[C@H](O[C@H]2[C@@H](O)[C@H](O[C@@H]3[C@@H](O)[C@H](N)C[C@H](N)[C@H]3O[C@H]3O[C@H](CN)[C@@H](O)[C@H](O)[C@H]3N)O[C@@H]2CO)[C@H](N)[C@@H](O)[C@@H]1O [FRAMYCETIN]
Not Active: IC50 [1] | IC50 [2] | IC50 (Cannabinoid receptor 1) | IC50 [3] | IC50 (Neutrophil elastase) | IC50 [4] | Ki [4] | IC50 [5] | Ki [5]

C[C@H]([C@](O)(Cn1cncn1)c1ccc(F)cc1F)S(C)(=O)=O [GENACONAZOLE]
Not Active: IC50 [1] | IC50 [2] | IC50 (Cannabinoid receptor 1) | IC50 [3] | IC50 (Neutrophil elastase) | IC50 [4] | Ki [4] | IC50 [5] | Ki [5]

Cc1cnc(C(=O)NCCc2ccc(S(=O)(=O)NC(=O)NC3CCCCC3)cc2)cn1 [GLIPIZIDE]
Not Active: IC50 [1] | IC50 [2] | IC50 (Cannabinoid receptor 1) | IC50 [3] | IC50 (Neutrophil elastase) | IC50 [4] | Ki [4] | IC50 [5] | Ki [5]

Cc1c(F)c(N2CCNC(C)C2)cc2c1c(=O)c(C(=O)O)cn2C1CC1 (centres undefined) [GREPAFLOXACIN]
Not Active: IC50 [1] | IC50 [2] | IC50 (Cannabinoid receptor 1) | IC50 [3] | IC50 (Neutrophil elastase) | IC50 [4] | Ki [4] | IC50 [5] | Ki [5]

COc1ccccc1OCC(O)CO (centres undefined) [GUAIFENESIN]
Not Active: IC50 [1] | IC50 [2] | IC50 (Cannabinoid receptor 1) | IC50 [3] | IC50 (Neutrophil elastase) | IC50 [4] | Ki [4] | IC50 [5] | Ki [5]

N=C(N)N/N=C/c1c(Cl)cccc1Cl [GUANABENZ]
Not Active: IC50 [1] | IC50 [2] | IC50 (Cannabinoid receptor 1) | IC50 [3] | IC50 (Neutrophil elastase) | IC50 [4] | Ki [4] | IC50 [5] | Ki [5]

C[C@]12CCC(=O)C=C1CC[C@@H]1[C@@H]2[C@@H](O)C[C@@]2(C)[C@H]1CC[C@]2(O)C(=O)CO [HYDROCORTISONE]
Not Active: IC50 [1] | IC50 [2] | IC50 (Cannabinoid receptor 1) | IC50 [3] | IC50 (Neutrophil elastase) | IC50 [4] | Ki [4] | IC50 [5] | Ki [5]

C/C=C\c1ccc(O)c(OC)c1 [ISOEUGENOL]
Not Active: IC50 [1] | IC50 [2] | IC50 (Cannabinoid receptor 1) | IC50 [3] | IC50 (Neutrophil elastase) | IC50 [4] | Ki [4] | IC50 [5] | Ki [5]

NC[C@H]1O[C@H](O[C@H]2[C@H](O)[C@@H](O[C@H]3O[C@H](CO)[C@@H](O)[C@H](N)[C@H]3O)[C@H](N)C[C@@H]2N)[C@H](O)[C@@H](O)[C@@H]1O [KANAMYCIN]
Not Active: IC50 [1] | IC50 [2] | IC50 (Cannabinoid receptor 1) | IC50 [3] | IC50 (Neutrophil elastase) | IC50 [4] | Ki [4] | IC50 [5] | Ki [5]

CC[C@H](C)C(=O)O[C@H]1C[C@@H](C)C=C2C=C[C@H](C)[C@H](CC[C@@H]3C[C@@H](O)CC(=O)O3)[C@H]21 [LOVASTATIN]
Not Active: IC50 [1] | IC50 [2] | IC50 (Cannabinoid receptor 1) | IC50 [3] | IC50 (Neutrophil elastase) | IC50 [4] | Ki [4] | IC50 [5] | Ki [5]

CC(C(=O)O)c1ccc(CC2CCCC2=O)cc1 (centres undefined) [LOXOPROFEN]
Not Active: IC50 [1] | IC50 [2] | IC50 (Cannabinoid receptor 1) | IC50 [3] | IC50 (Neutrophil elastase) | IC50 [4] | Ki [4] | IC50 [5] | Ki [5]

Cc1cccc(Nc2ccccc2C(=O)O)c1C [MEFENAMIC ACID]
Not Active: IC50 [1] | IC50 [2] | IC50 (Cannabinoid receptor 1) | IC50 [3] | IC50 (Neutrophil elastase) | IC50 [4] | Ki [4] | IC50 [5] | Ki [5]

CC(=O)O[C@]1(C(C)=O)CC[C@H]2[C@@H]3C=C(C)C4=CC(=O)CC[C@]4(C)[C@H]3CC[C@@]21C [MEGESTROL ACETATE]
Not Active: IC50 [1] | IC50 [2] | IC50 (Cannabinoid receptor 1) | IC50 [3] | IC50 (Neutrophil elastase) | IC50 [4] | Ki [4] | IC50 [5] | Ki [5]

COc1ccccc1OCC(O)COC(N)=O (centres undefined) [METHOCARBAMOL]
Not Active: IC50 [1] | IC50 [2] | IC50 (Cannabinoid receptor 1) | IC50 [3] | IC50 (Neutrophil elastase) | IC50 [4] | Ki [4] | IC50 [5] | Ki [5]

CN(Cc1cnc2nc(N)nc(N)c2n1)c1ccc(C(=O)N[C@@H](CCC(=O)O)C(=O)O)cc1 [METHOTREXATE]
Not Active: IC50 [1] | IC50 [2] | IC50 (Cannabinoid receptor 1) | IC50 [3] | IC50 (Neutrophil elastase) | IC50 [4] | Ki [4] | IC50 [5] | Ki [5]

COC(=O)c1ccccc1O [METHYL SALICYLATE]
Not Active: IC50 [1] | IC50 [2] | IC50 (Cannabinoid receptor 1) | IC50 [3] | IC50 (Neutrophil elastase) | IC50 [4] | Ki [4] | IC50 [5] | Ki [5]

From ChEMBL document CHEMBL1909046, “DrugMatrix in vitro pharmacology data”
